The values that follow come from patent US10517870B2, “Aryl substituted bicycle heteroaryl compounds” (Bristol-Myers Squibb Company, priority 2015, dated 2019).

Common to all, as to format: cell-based
Experiment [1] has as its system platelet aggregation induced by gamma-thrombin. As to the kind of experiment: Gamma thrombin induced platelet aggregation assay in platelet rich plasma (PRP). The following applies: human platelet rich plasma. An excerpt: The compounds of the current invention can be tested in vitro for their ability to inhibit platelet aggregation induced by gamma-thrombin as shown in Example C. Gamma-thrombin, a proteolytic product of alpha-thrombin which no longer interacts with PAR1, selectively cleaves and activates PAR4 (Soslau, G. et al., “Unique pathway of thrombin-induced platelet aggregation mediated by glycoprotein Ib”, J. Biol. Chem., 276:21173-21183 (2001)). Platelet aggregation can be monitored in a 96-well microplate aggregation assay format or using standard platelet aggregometer. […]
The ability of the compounds of the current invention to inhibit platelet aggregation induced by gamma-thrombin was tested in a 96-well microplate aggregation assay format. […] The plate was then placed into a SpcctraMax® Plus Plate Reader (Molecular Devices) at 37° C. Platelet aggregation was monitored at a wavelength of 405 nm using a kinetic analysis mode. […] Inhibition of platelet aggregation (IPA) was calculated based on the formula: % IPA=(100−100*[ODcompound−ODminimum]/[ODmaximum−ODminimum]). The IC50 value of the test compound was calculated by fitting the % IPA values to the one-site concentration response equation: Y=A+(B−A)/{1+(C/X)^D]}, using XLfit for 32 bit Excel® Version 2 Build 30 (ID Business Solutions Limited).

The subject of experiment [2] is HeLa (HPV18+) cells. As to the kind of experiment: Cell proliferation/viability assay, HeLa cells. As to conditions: Homo sapiens, 96 h, 4 days. The method, boiled down: (§1)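 Cells plated in antibiotic-free growth medium, compound added 2 h later (0.5% DMSO final) and incubated 4 days at 37 °C. Viability by CellTiter Blue (ex 530/em 590 nm) or CellTiter Glo luminescence; IC50 from four-parameter logistic fit of % inhibition.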

Experiment [3] deals with Saos-2 (HPV−) cells. Briefly: Cell proliferation/viability assay, Saos-2 cells. The following applies: Homo sapiens, SAOS-2, 96 h, read-out: Saos-2 (HPV−) Proliferation IC50 (μM). The method, boiled down:
as §1

Consider `COc1ccc(-c2cc(C)cc3nc(OC(F)F)cnc23)cc1` [Example 6, 2-(difluoromethoxy)-5-(4-methoxyphenyl)-7-methylquinoxaline], for which the IC50 was > 30 µM in experiment [1], 10.6 µM in experiment [2] and 48 µM in experiment [3].
